Experiment: gradient 5% acetonitrile 3 min, to 50% in 2 min, to 85% in 15 min, held 3 min, 100 µL/min
Details: column: Zorbax Extend-C18 2.1 x 50 mm; eluents: water / acetonitrile, 0.1% formic acid
Method in brief: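 The system's dead and dwell volumes were 40 μL and 900 μL, with a Zorbax Extend-C18 column (2.1 × 50 mm, 1.8 μm) run at 100 μL/min in water and acetonitrile containing 0.1% formic acid each. Pure standards were analyzed in mixtures of ~100 molecules by HPLC–quadrupole time-of-flight mass spectrometry in positive and negative ionization mode. Retention time was assigned from computationally picked, manually inspected adduct peaks.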

RP-LC retention time	SMILES
873 s	Cc1ccc(NC(=O)Cn2nc3c(Oc4ccccc4C)nccn3c2=O)c(C)c1
969 s	c1ccc(-c2noc(NCCc3ccsc3)n2)cc1
634 s	CN(CC(=O)Nc1ccc(F)cc1)C(=O)C1CCN(c2cnn(C)c(=O)c2)C1 (stereo not given)
980 s	CCn1c(=O)sc2cc(S(=O)(=O)N3CCC(C(=O)Nc4ccc(Cl)cc4C)CC3)ccc21
710 s	Cn1c(N2CCCC(C(=O)NCc3ccc(Cl)cc3)C2)cc(=O)n(C)c1=O (stereo not given)
950 s	CCc1nn2c(CNC(=O)c3ccc(C)cc3)c(-c3ccccc3)nc2s1
684 s	O=C(NC1CCCCCC1)c1ccnc(N2CCNC(c3ccccc3)C2)c1 (stereo not given)
658 s	COc1ccc(NC(=O)Nc2cccc(-c3ccc(N4CCOCC4)nn3)c2)cc1
707 s	CCc1nnc2ccc(S(=O)(=O)Nc3ccc(F)cc3)cn12
736 s	CC(=O)N1CCc2cc(C(=O)NCc3ccccc3)ccc21
822 s	COc1ccc(S(=O)(=O)Nc2cccn3c(C4CCC4)nnc23)cc1Cl
777 s	Cc1ccc(C)c(NC(=O)c2cnn3c2CCCC3)c1
769 s	O=C(c1c(F)cccc1F)N(CC1CCOC1)C1CC1 (stereo not given)
605 s	CC1(C(=O)NCc2ccccc2)Cn2cnc(C(=O)N3CCOCC3)c2C(=O)N1C1CC1 (stereo not given)
570 s	O=C(CN1CCCC(COCc2ccccc2)C1)Nc1nccs1 (stereo not given)
713 s	O=C(Cn1nc2n(c1=O)CCCCC2)Nc1ccccc1C(F)(F)F
970 s	COc1ccc(CNC(=O)Cn2c(C)nc3c(sc4nc(-c5ccccc5)ccc43)c2=O)cc1
654 s	Cn1cnc(S(=O)(=O)N2CCC[C@H](n3c(=O)n(C)c4cccnc43)C2)c1
580 s	CN(C)CCCn1c(C2CC(=O)N(c3ccccc3F)C2)nc2ccccc21 (stereo not given)
1140 s	Cc1ccc(Cl)c(NC(=O)c2nc(C)oc2C)c1
603 s	NS(=O)(=O)c1ccc(CCNC(=O)c2coc(NC(=O)c3cccs3)n2)cc1
1150 s	CC(C)Cc1noc(C2(F)CCN(S(=O)(=O)c3ccc(F)cc3F)CC2)n1
673 s	Cc1c(CC(=O)NC(C)C)c(=O)n2nc(-c3ccccc3)nc2n1C
940 s	Cc1ccc(NC(=O)Cn2nc(N3CCSCC3)c3ccccc3c2=O)c(C)c1
921 s	O=[N+]([O-])c1ccc(-c2nc(NC3CCCCC3)c3ccccc3n2)cc1
636 s	COCCn1nc2n(c1=O)CCN(C(=O)c1ccc(Br)o1)CC2
696 s	CN(CC1CCOCC1)C(=O)Nc1cc(F)ccc1F
1040 s	CC(C)c1ccc(N2C=C(C(=O)N3CCCCC3)S(=O)(=O)c3ccccc32)cc1
775 s	O=C(Cn1nc(C(=O)N2CCCC2)c2ccccc21)NCCc1cccs1
613 s	Cc1cc(=O)n(CC(=O)NCc2ccc(Cl)cc2)c(N)n1

Second part, the compound before the results:

SMILES	RP-LC retention time
Cc1sc2ccn(C)c(=O)c2c1C(=O)NCc1ccc(F)cc1Cl	827 s
CC1CCN(c2cc(-n3cnc(C(=O)N4CCC(N5CCCCC5)CC4)c3)ncn2)CC1	662 s
CC1=C(C(=O)OCCCc2ccccc2)C(c2cccs2)NC(=O)N1 (stereo not given)	882 s
O=C(CC1CCN(C(=O)c2ccc3oc(C4CC4)nc3c2)CC1)NCc1ccc2c(c1)OCO2	733 s
Cc1nnc(-c2coc(S(=O)(=O)N(C)C3CCCCC3)c2)o1	906 s
COc1ccc(CN2C(=O)CC(c3ccc(OC)cc3)CC2=O)cc1	965 s
O=C(Nc1cccc(Cl)c1)Nc1cnn(-c2ncncc2N2CCOCC2)c1	735 s
CCN1CCN(S(=O)(=O)c2cc(-c3nnc(-c4ccccc4)o3)ccc2OC)CC1	636 s
COc1cc(NC(=O)NC(C(=O)N2CCc3ccccc32)C(C)C)cc(OC)c1 (stereo not given)	982 s
Cc1sc2ccn(C)c(=O)c2c1C(=O)NC1CCCCC1	716 s
CCCCN(C)C(=O)C1CCN(S(=O)(=O)c2ccc3c(c2)sc(=O)n3C)CC1	822 s
COc1ccc(-c2nnc(-c3ccc(Cl)c(S(=O)(=O)N4CCCCC4)c3)o2)cc1	1100 s
Cc1cc(C(=O)N[C@@H]2CN(c3ncccn3)C[C@H]2CO)c(C)o1	616 s
O=C1CN(Cc2ccc(OC(F)(F)F)cc2)C2(CCCC2)CN1	682 s
CCOC(=O)c1ccc(NS(=O)(=O)c2cc3n(c2)CCCN(C)C3=O)cc1	711 s
CC(C)NC(=O)N1CCCC(OCc2nc(-c3ccccc3)no2)C1 (stereo not given)	551 s
O=C(COc1cccc(Br)c1)Nc1nc(-c2ccccc2)cs1	1130 s
Cc1ccc(CN2CCCn3nc(C(=O)NCCCN4CCOCC4)cc3C2=O)cc1	618 s
O=C(c1ccco1)N1CCCn2nc(-c3cccs3)cc2C1	750 s
COCCN1C(=O)CCc2cc(NC(=O)C(C)(C)C)ccc21	707 s

SMILES	RP-LC retention time
O=C(NCc1ccco1)c1nn(-c2ccc(F)cc2)c2ccccc2c1=O	872 s
CCc1nc2ccc(-c3noc(C(C)NC(=O)c4ccco4)n3)cc2n1CC (stereo not given)	621 s
N#Cc1cccc(NC(=O)C2CCN(S(=O)(=O)c3cc(C(=O)N4CCOCC4)cs3)CC2)c1	748 s
O=C(CN1C(=O)CCCc2cc(S(=O)(=O)N3CCCCCC3)ccc21)N1CCc2ccccc2C1	974 s
COc1ncc(C(=O)N2CCN(c3ccccc3Cl)CC2)cn1	811 s
COc1ccc(C(=O)N2CCC(n3c(-c4ccco4)nc4cccnc43)C2)cn1 (stereo not given)	643 s
CCOC(=O)N1CCN(Cc2c(NC(=O)c3ccccc3)sc(C)c2C)CC1	630 s
Cn1c(C(=O)N2CCCC(C(=O)N3CCc4ccccc4C3)C2)cc2sccc21 (stereo not given)	925 s
O=C(C1CC1)N1CCCCC1c1nc(-c2cnccn2)no1 (stereo not given)	638 s
COc1ccc2c(c1)C1(CCN(S(=O)(=O)c3cccc(C#N)c3)C1)C(=O)N2C (stereo not given)	875 s
COc1ccc(NC(=O)C2(C)Oc3cccnc3NC2=O)cc1OC (stereo not given)	651 s
O=C(NCCc1ccccc1)N1CCC(n2c(-c3ccoc3)nc3cccnc32)C1 (stereo not given)	725 s
O=C(Cc1ccc(F)cc1)N1CCc2cc(-c3ccno3)ccc21	940 s
COc1ccc(C(=S)N2CCN(c3ccccc3C)CC2)cc1	1260 s
CC(=O)N1CCc2[nH]c3ccc(C(=O)Nc4ccc(N5CCOCC5)cc4)cc3c2C1	654 s
O=C(CN1CCc2ccccc2C1C(=O)N1CCCCC1)NCc1ccc(F)cc1Cl (stereo not given)	918 s
Cc1ccc(NC(=O)N2CCC(N3CCN(Cc4ccccc4)C3=O)CC2)cc1F	872 s
Cc1cc(NC(=O)C2CCN(C(=O)c3cnn(-c4ccccc4)c3C)CC2)no1	657 s
COc1ccc(NC(=O)N2[C@H]3CC[C@@H]2c2cncnc2C3)cc1OC	839 s
CCn1cc(CC(=O)NCc2ccc(OC)cc2)c2cccnc21	716 s

SMILES	RP-LC retention time
CC(C)n1nc2c(S(=O)(=O)N3CCOCC3)cccn2c1=O	670 s
CCOc1ccc(S(=O)(=O)[C@H]2CS(=O)(=O)C[C@@H]2N2CCC(C(=O)OC)CC2)cc1	858 s
Cc1ccc(-c2nnc(Cc3nc(-c4ccccc4Cl)no3)o2)cc1F	1110 s
COc1ccc(CNC(=O)C2CCCN(c3nnc4ccc(Cl)cn34)C2)cc1OC (stereo not given)	685 s
CC(C)CNC(=O)C1CCN(c2nccn3nc(-c4cccs4)cc23)CC1	561 s
CCN(CC)C(=O)c1cnc2nc(C)ccc2c1Nc1ccc(CC(=O)O)cc1	1020 s
O=C(NCc1ccccc1)N1CCC(OCc2nc(C3CC3)no2)CC1	776 s
CC(C)Cn1c(=O)c(N2CCN(C(=O)NCCc3ccccc3)CC2)nc2ccncc21	668 s
Oc1c(C(Nc2ccccn2)c2ccccc2F)ccc2cccnc12 (stereo not given)	604 s
Cn1c(C(=O)NCc2ccccc2)cc2sc(Cl)cc21	1060 s
Cc1ccc(NS(=O)(=O)c2cc3n(c2)CCN(C)C3=O)cc1F	716 s
CN(C)C(CNC(=O)c1cc(=O)c2ccccc2o1)c1ccccc1Cl (stereo not given)	650 s
CC(C)c1nnc(-c2cccnc2N2CCN(C(=O)c3ccc4c(c3)OCO4)CC2)o1	759 s
COc1ccccc1CN1CC(=O)N(c2cccc(C)c2)[C@@H]2CS(=O)(=O)C[C@@H]21	819 s
COc1ccc(CN2CCc3nc(N4CCN(c5ccccc5F)CC4)ncc3C2)cc1	773 s
CCOC(=O)Cn1nc(-n2ccnc2)ccc1=O	503 s
COc1ccc2c(c1)C1(CCN(C(=O)c3ccccc3C(F)(F)F)C1)C(=O)N2 (stereo not given)	714 s
O=C(NCc1ccccc1)C1CCN(S(=O)(=O)c2cc(-c3noc(C4CCC4)n3)cs2)CC1	1020 s
COc1ccc(C(=O)N2CCN(S(=O)(=O)c3cc4c5c(c3)CCC(=O)N5CCC4)CC2)cc1	779 s
O=C(Cc1cccs1)Nc1ccc(N2CCN(C3CCCCC3)C2=O)nc1	804 s

From the METLIN SMRT retention time set (Domingo-Almenara et al. 2019)
